Target: Cannabinoid receptor 1 (Homo sapiens, UniProt P21554)
Assay: cAMP Assay: CHO cells expressing human CB1 or CB2 receptors are seeded 17-24 hours prior to the experiment 50.000 cells per well in a black 96 well plate with flat clear bottom (Corning Costar #3904) in DMEM (Invitrogen No. 31331), 1×HT supplement, with 10% fetal calf serum and incubated at 5% CO2 and 37° C. in a humidified incubator. The growth medium was exchanged with Krebs Ringer Bicarbonate buffer with 1 mM IBMX and incubated at 30° C. for 30 min Compounds were added to a final assay volume of 100 ul and incubated for 30 min at 30° C. Using the cAMP-Nano-TRF detection kit the assay (Roche Diagnostics) was stopped by the addition of 50 ul lysis reagent (Tris, NaCl, 1.5% Triton X100, 2.5% NP40, 10% NaN3) and 50 ul detection solutions (20 uM mAb Alexa700-cAMP 1:1, and 48 uM Ruthenium-2-AHA-cAMP) and shaken for 2 h at room temperature. The time-resolved energy transfer is measured by a TRF reader (Evotec Technologies GmbH), equipped with a ND:YAG laser as excitation source. The plate is measured twice with the excitation at 355 nm and at the emission with a delay of 100 ns and a gate of 100 ns, total exposure time 10 s at 730 (bandwidth 30 nm) or 645 nm (bandwidth 75 nm), respectively. The FRET signal is calculated.
Type: functional, cell-based

Sequence of Cannabinoid receptor 1 (P21554 whole entry): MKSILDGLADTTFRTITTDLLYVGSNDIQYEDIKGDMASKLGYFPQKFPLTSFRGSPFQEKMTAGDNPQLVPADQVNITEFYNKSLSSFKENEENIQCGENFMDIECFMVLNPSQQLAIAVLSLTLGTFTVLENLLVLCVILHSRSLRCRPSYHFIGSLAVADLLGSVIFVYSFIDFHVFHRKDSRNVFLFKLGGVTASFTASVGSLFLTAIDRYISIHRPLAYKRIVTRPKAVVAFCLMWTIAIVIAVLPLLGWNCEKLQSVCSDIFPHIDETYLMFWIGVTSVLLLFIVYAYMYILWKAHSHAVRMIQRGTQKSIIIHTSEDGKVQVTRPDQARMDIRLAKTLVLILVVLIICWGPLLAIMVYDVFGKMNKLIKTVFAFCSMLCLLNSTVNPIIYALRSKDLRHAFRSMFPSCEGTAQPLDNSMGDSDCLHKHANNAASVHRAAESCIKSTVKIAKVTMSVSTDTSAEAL

## O=C(N[C@@H](CC1CC1)C(=O)NC1CCC(O)C1)c1ccc(C2CC2)c(OCC2CC2)n1 (stereo partly specified)
  EC50: > 10 µM
